Drawing on publication PMC12191008, “Heterostilbene Carbamates with Selective and Remarkable Butyrylcholinesterase Inhibition: Computational Study and Physico-Chemical Properties” (Biomolecules, 2025), this text covers inhibition and IC50 for 19 molecules.

Experiment [1] concerns the target BChE (EC 3.1.1.8, equine serum) (Equus caballus, UniProt P81908). Briefly: In vitro ChE activity assay (modified Ellman), BChE. Conditions: for inhibition at 50 µM / inhibition at 500 µM: read-out: BChE % Inhibition. Type of experiment: biochemical. (In Ellman's method for cholinesterases, released thiocholine reacts with DTNB.)
Experiment [2] relates to LPS-stimulated TNFα production in PBMCs. Nature of the experiment: LPS-stimulated TNFα production in PBMCs (ELISA). Format: cell-based. Particulars: Homo sapiens, PBMC, read-out: IC50, inhibition of LPS-stimulated TNFα production. The procedure:
The effect of compounds on lipopolysaccharide (LPS)-stimulated tumor necrosis factor alpha (TNFα) production was evaluated as described previously. In short, peripheral blood mononuclear cells (PBMCs) were isolated from buffy coats obtained from healthy adult volunteers and resuspended in RPMI1640 medium (Capricorn Scientific, Ebsdorfergrund, Germany) supplemented with 10% heat-inactivated FBS (Biowest, Bradenton, FL, USA), 1% GlutaMAX (Gibco, Waltham, MA, USA), and 1% antibiotic–antimycotic (Gibco). Then, 2 × 10^5 PBMCs were seeded per well of a 96-well plate. […]
TNFα concentration in supernatants was measured by ELISA using antibodies and recombinant human TNFα protein (standard) from R&D Systems. […] Finally, after the plates were incubated with streptavidin-HRP (Invitrogen, Waltham, MA, USA), chemiluminescence ELISA Substrate (Roche, Basel, Switzerland) was added to the wells, and luminescence was measured using an EnVision 2105 multilabel reader (Revvity, Waltham, MA, USA). Measured luminescence was used to calculate concentrations of TNFα in the supernatants by interpolation from the standard curve. Percentages of inhibition were calculated from obtained cytokine concentrations, and IC50 values were determined using GraphPad Prism v9 software with a nonlinear regression curve fit (four parameters with variable slope).
In general terms: An ELISA detects its analyte on a solid surface through an enzyme-linked reagent.

Where [3] appears, read: at maximal concentration tested.
[4] abbreviates: at maximal concentration tested, 50 μM.

One may read the inhibition as the relative decrease from the control value, in per cent. What is called IC50 is the midpoint of a concentration-inhibition curve.

Several values for one entry are separate records, joined by “and”; a condition that tells them apart may be missing. Identical values can stand only once. Like-named read-outs stand apart in the source and are kept apart here.

Chain of BChE (EC 3.1.1.8, equine serum) (P81908 whole entry): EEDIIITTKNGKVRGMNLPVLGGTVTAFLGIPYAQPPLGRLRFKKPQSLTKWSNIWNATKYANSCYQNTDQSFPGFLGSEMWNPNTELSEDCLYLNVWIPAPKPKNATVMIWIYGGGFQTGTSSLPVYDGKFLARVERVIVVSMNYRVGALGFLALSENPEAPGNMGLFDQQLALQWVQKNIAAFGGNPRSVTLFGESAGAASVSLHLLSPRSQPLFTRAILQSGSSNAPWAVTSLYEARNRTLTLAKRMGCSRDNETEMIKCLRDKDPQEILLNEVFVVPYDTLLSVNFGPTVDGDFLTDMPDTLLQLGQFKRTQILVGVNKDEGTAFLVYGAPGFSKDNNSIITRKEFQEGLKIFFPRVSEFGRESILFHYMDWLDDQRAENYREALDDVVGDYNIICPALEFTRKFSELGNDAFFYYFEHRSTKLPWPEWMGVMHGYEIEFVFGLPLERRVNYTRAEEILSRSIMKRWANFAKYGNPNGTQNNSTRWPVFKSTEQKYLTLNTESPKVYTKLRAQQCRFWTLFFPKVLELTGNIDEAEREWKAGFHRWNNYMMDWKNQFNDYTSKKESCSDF

With `CCN(C)C(=O)Oc1ccc(F)cc1/C=C/c1cccs1` [Compound 10, (E)-4-fluoro-2-(2-(thiophen-2-yl)vinyl)phenyl ethyl(methyl)carbamate], the inhibition at 27 µM in experiment [1] (at maximal concentration tested, 27 μM) was 83.5 ± 1.49%. Also, the IC50 in experiment [1] (read-out: BChE IC50) was 3.08 µM.
Molecule `CCN(C)C(=O)Oc1ccc(C)cc1/C=C/c1cccs1` [Compound 11, (E)-4-methyl-2-(2-(thiophen-2-yl)vinyl)phenyl ethyl(methyl)carbamate] showed an inhibition at 10 µM in experiment [1] (setting [3]) of 82.8 ± 1.57%. Besides, the IC50 in experiment [1] (read-out: BChE IC50) was 1.54 µM.
On to `CNC(=O)Oc1ccc(C)cc1/C=C/c1cccs1` [Compound 4, (E)-4-methyl-2-(2-(thiophen-2-yl)vinyl)phenyl methylcarbamate], for which the IC50 in experiment [1] (BChE IC50) was 1.1 µM and 0.913 µM. This molecule came in with an inhibition at 10 µM in experiment [1] (setting [3]) of 85.4 ± 2.29%.
As for `O=C(Oc1ccc(F)cc1/C=C/c1cccs1)N1CCOCC1` [Compound 17, (E)-4-fluoro-2-(2-(thiophen-2-yl)vinyl)phenyl morpholine-4-carboxylate], in experiment [1] (setting [3]), the inhibition at 25 µM was 82.3 ± 2.44%. The IC50 in experiment [1] (read-out: BChE IC50) came to 0.645 µM.
In experiment [1] (setting [3]), `Cc1ccc(OC(=O)N2CCOCC2)c(/C=C/c2cccs2)c1` [Compound 18, (E)-4-methyl-2-(2-(thiophen-2-yl)vinyl)phenyl morpholine-4-carboxylate] gave an inhibition at 25 µM of 87.5 ± 1.31%. For the same molecule, the IC50 in experiment [1] (read-out: BChE IC50) came to 0.43 µM.
`CNC(=O)Oc1ccc(F)cc1/C=C/c1ccc(C)s1` [Compound 6, (E)-4-fluoro-2-(2-(5-methylthiophen-2-yl)vinyl)phenyl methylcarbamate]: the IC50 in experiment [1] (BChE IC50) stood at 14.1 µM. In addition, in experiment [1], the inhibition at 50 µM is 74 ± 3.2%.
In the case of `CNC(=O)Oc1ccc(Cl)cc1/C=C/c1ccc(C)s1` [Compound 7, (E)-4-chloro-2-(2-(5-methylthiophen-2-yl)vinyl)phenyl methylcarbamate], the inhibition at 100 µM in experiment [1] (setting [3]) was 69.8 ± 1.15%. Moreover, in experiment [1] (read-out: BChE IC50), the half-maximal inhibitory concentration (IC50) is 30.4 µM.
As for `CNC(=O)Oc1ccc(Cl)cc1C=Cc1ncc(C)s1` [Compound 8, (E) and (Z)-4-chloro-2-(2-(5-methylthiazol-2-yl)vinyl)phenyl methylcarbamate], in experiment [1] (BChE IC50), the IC50 was 59.1 µM. Further, the inhibition at 500 µM in experiment [1] came out at 87.21 ± 0.47%.
As to `CCN(C)C(=O)Oc1ccccc1/C=C/c1ccc(C)s1` [Compound 14, (E)-2-(2-(5-methylthiophen-2-yl)vinyl)phenyl ethyl(methyl)carbamate], the IC50 was determined as 85.1 µM in experiment [1] (BChE IC50) and 90 µM in experiment [1] (read-out: BChE IC50). The molecule further gave an inhibition at 250 µM in experiment [1] (at maximal concentration tested, 250 μM) of 70 ± 0.8%.
In experiment [1] (setting [3]), `CNC(=O)Oc1ccc(F)cc1/C=C/c1cccs1` [Compound 2, (E)-4-fluoro-2-(2-(thiophen-2-yl)vinyl)phenyl methylcarbamate] registered an inhibition at 100 µM of 84.7 ± 3.2%. Moreover, in experiment [1] (read-out: BChE IC50), the IC50 came out at 3.74 µM.
In the case of `CCN(C)C(=O)Oc1cccc(/C=C/c2cccs2)c1` [Compound 12, (E)-3-(2-(thiophen-2-yl)vinyl)phenyl ethyl(methyl)carbamate], the half-inhibitory concentration (IC50) in experiment [1] (BChE IC50) worked out at 1.5 µM; in experiment [1] (read-out: BChE IC50), 1.07 µM. In experiment [1] (setting [4]), the inhibition at 50 µM was 83.2 ± 0.84%.
With `C[C@@H]1C[C@H]2[C@@H]3CCC4=CC(=O)C=C[C@]4(C)[C@@]3(F)[C@@H](O)C[C@]2(C)[C@@]1(O)C(=O)CO` [Dexamethasone, reference compound], the IC50 in experiment [2] (PBMCs, reference compound) came to 0.0035 µM.
For `CNC(=O)Oc1ccc(OC)cc1/C=C/c1cccs1` [Compound 3, (E)-4-methoxy-2-(2-(thiophen-2-yl)vinyl)phenyl methylcarbamate], in experiment [1] (at maximal concentration tested, 500 μM), the inhibition at 500 µM came to 82.2 ± 2%. Besides, in experiment [1] (read-out: BChE IC50), the IC50 turned out to be 150 µM.
With `CCN(C)C(=O)Oc1ccccc1/C=C/c1cccs1` [Compound 9, (E)-2-(2-(thiophen-2-yl)vinyl)phenyl ethyl(methyl)carbamate], the inhibition at 10 µM in experiment [1] (setting [3]) was 83.9 ± 1.77%. Besides, in experiment [1] (read-out: BChE IC50), the IC50 was found to be 0.583 µM.
As to `CNC(=O)Oc1ccccc1/C=C/c1ccc(C)s1` [Compound 5, (E)-2-(2-(5-methylthiophen-2-yl)vinyl)phenyl methylcarbamate], the figures for the IC50 in experiment [1] (BChE IC50) and in experiment [1] (read-out: BChE IC50) were 0.913 µM and 1.1 µM, respectively. For the same molecule, in experiment [1] (at maximal concentration tested, 5 μM), at 5 µM the inhibition was 74.8 ± 2.36%.
In the case of `O=C(Oc1ccccc1/C=C/c1cccs1)N1CCOCC1` [Compound 16, (E)-2-(2-(thiophen-2-yl)vinyl)phenyl morpholine-4-carboxylate], the inhibition at 1 µM in experiment [1] (at maximal concentration tested, 1 μM) came to 84.25 ± 0.82%. For the same molecule, the IC50 in experiment [1] (read-out: BChE IC50) stood at 0.0265 µM; in experiment [2] (average, PBMCs from two donors) it was 31.6 µM.
In the case of `O=C(Oc1cccc(/C=C/c2cccs2)c1)N1CCOCC1` [Compound 19, (E)-3-(2-(thiophen-2-yl)vinyl)phenyl morpholine-4-carboxylate], in experiment [1] (setting [4]), the inhibition at 50 µM was 79.7 ± 2.51%. In addition, the 50% inhibitory concentration (IC50) in experiment [1] (read-out: BChE IC50) turned out to be 2.04 µM.
As to `CCN(C)C(=O)Oc1cc(OC)ccc1/C=C/c1cccs1` [Compound 13, (E)-5-methoxy-2-(2-(thiophen-2-yl)vinyl)phenyl ethyl(methyl)carbamate], in experiment [1] (setting [3]), the inhibition at 25 µM was 84.4 ± 2.29%. Besides, in experiment [1] (read-out: BChE IC50), the half-maximal inhibitory concentration (IC50) came to 1.88 µM.
Consider `CNC(=O)Oc1ccccc1/C=C/c1cccs1` [Compound 1, (E)-2-(2-(thiophen-2-yl)vinyl)phenyl methylcarbamate], for which the inhibition at 10 µM in experiment [1] (setting [3]) is 84.4 ± 1.18%. Besides, the IC50 in experiment [1] (read-out: BChE IC50) was 0.5 µM.
